Measured values taken from ChEMBL document CHEMBL1141299, “Hologram QSAR model for the prediction of human oral bioavailability” (Bioorg Med Chem, 2007).

Test system: Homo sapiens
Experiment: (§1) Oral bioavailability in human
Details: in vivo
`O=C(NC[C@H]1CCCCN1)c1cc(OCC(F)(F)F)ccc1OCC(F)(F)F` (stereo in doubt; 083) [(R)-FLECAINIDE] gave an F of 95%. With `C[C@H]1COc2c(N3CCN(C)CC3)c(F)cc3c(=O)c(C(=O)O)cn1c23.C[C@H]1COc2c(N3CCN(C)CC3)c(F)cc3c(=O)c(C(=O)O)cn1c23.O` (stereo in doubt; 162) [LEVOFLOXACIN] the F was 97.5%. `O=C(NC[C@H]1CCCCN1)c1cc(OCC(F)(F)F)ccc1OCC(F)(F)F` (stereo in doubt; 268) [(R)-FLECAINIDE] gave an F of 70%.

Test system: not listed separately
Experiment: as §1
Details: in vivo
For `C[C@]12CC[C@H]3[C@@H](CCC4=CC(=O)CC[C@@]43C)[C@@H]1CC[C@@H]2O` [TESTOSTERONE], the bioavailability was 7%. In the case of `Cn1c(=O)c2[nH]cnc2n(C)c1=O.O` [THEOPHYLLINE], the bioavailability was 98.8%. `COc1cccc([C@@]2(O)CCCC[C@@H]2CN(C)C)c1` [TRAMADOL] showed a bioavailability of 75%. With `Cc1nnc2n1-c1ccc(Cl)cc1C(c1ccccc1Cl)=NC2` [TRIAZOLAM] the bioavailability was 44%. Work on `O=C(O[C@H]1C[C@H]2CC[C@@H](C1)[N+]21CCCC1)C(O)(c1ccccc1)c1ccccc1` [TROSPIUM] yielded a bioavailability of 9.6%. In the case of `CCN(C(C)=O)c1cccc(-c2ccnc3c(C#N)cnn23)c1` [ZALEPLON], the bioavailability was 30%. `Cc1ccc(-c2nc3ccc(C)cn3c2CC(=O)N(C)C)cc1` [ZOLPIDEM] showed a bioavailability of 72%.

Same assay, conditions: in vivo, F
With `CN(C)[C@@H]1C(O)=C(C(N)=O)C(=O)[C@@]2(O)C(O)=C3C(=O)c4c(O)cccc4[C@@](C)(O)[C@H]3C[C@@H]12` [TETRACYCLINE] the bioavailability was 77%. `CCCCNC(=O)NS(=O)(=O)c1ccc(C)cc1` [TOLBUTAMIDE] gave a bioavailability of 85%. `CC1(C)O[C@@H]2[C@@H](CO[C@@]3(COS(N)(=O)=O)OC(C)(C)O[C@@H]23)O1` [TOPIRAMATE] gave a bioavailability of 70%. With `CC[C@@]1(O)C(=O)OCc2c1cc1n(c2=O)Cc2cc3c(CN(C)C)c(O)ccc3nc2-1` [TOPOTECAN] the bioavailability was 32%. For `Cc1cccc(Nc2ccncc2S(=O)(=O)NC(=O)NC(C)C)c1` [TORSEMIDE], the bioavailability was 91%. `COc1cc(Cc2cnc(N)nc2N)cc(OC)c1OC` [TRIMETHOPRIM] gave a bioavailability of 63%. In the case of `CCCC(CCC)C(=O)O` [VALPROIC ACID], the bioavailability was 90%. `Cc1cn([C@H]2C[C@H](N=[N+]=[N-])[C@@H](CO)O2)c(=O)[nH]c1=O` [ZIDOVUDINE] showed a bioavailability of 64%. For `O=C1Cc2cc(CCN3CCN(c4nsc5ccccc45)CC3)c(Cl)cc2N1` [ZIPRASIDONE], the bioavailability was 60%.
